The record followed here is US20230091221A1, “PHARMACEUTICAL COMPOSITION” (Chugai Seiyaku Kabushiki Kaisha, priority 2017, published 2023).

Holding throughout (assay type): in vivo
Assay [1] concerns Foxp3-positive CD4-positive regulatory T cells in tumor. In words: Foxp3-positive CD4-positive regulatory T cells in tumor in FM3A syngeneic mouse model (flow cytometry). Particulars: day 8; irinotecan 250 mg/kg ip once. The source says:
On day 8 of administration, tumors were collected, and then cells were dissociated using a gentleMACS (Trademark) Octo Dissociator, washed, and then used for flow cytometry, thereby measuring Foxp3-positive CD4-positive regulatory T cells by flow cytometry (FIG. 4).
(Flow cytometry measures light scatter and fluorescence of single cells or particles in a stream.)

Assay [2] has as its system CD8-positive T cells in peripheral blood. In words: Number of CD8-positive T cells in peripheral blood in FM3A syngeneic mouse model (flow cytometry). The settings on record: day 8; irinotecan 250 mg/kg ip once; P<0.05, Wilcoxon Signed-Rank Test. The protocol: On day 8 of administration, peripheral blood was collected, CD8-positive T cells were measured by flow cytometry (FIG. 2).

The subject of assay [3] is CD8-positive T cells in tumor. In words: CD8, CD69 or Ki-67-positive tumor-infiltrating lymphocytes in FM3A syngeneic mouse model (flow cytometry). The settings on record: day 8, irinotecan 250 mg/kg ip once. An excerpt:
On day 8 of administration, tumors were collected, and then cells were dissociated using a gentleMACS (Trademark) Octo Dissociator, washed, and then used for flow cytometry, thereby quantitatively determining CD8, CD69 or Ki-67-positive tumor-infiltrating lymphocytes (TIL) (FIG. 3).

Structures are written as SMILES.

Consider `CCc1c2c(nc3ccc(OC(=O)N4CCC(N5CCCCC5)CC4)cc13)-c1cc3c(c(=O)n1C2)COC(=O)[C@]3(O)CC` [irinotecan], for which, in assay [1], the “Foxp3-positive CD4-positive regulatory T cells in tumors versus solvent administration group” value is “significantly lower”. In assay [2], the “number of CD8-positive T cells in peripheral blood versus solvent administration group” value is “significantly lower”. Further, in assay [3], the “CD8-positive T cells in lymph nodes compared with the solvent administration group (FIG. 3A)” value is reported as “not found to exhibit any significant decrease” and the “CD69-positive CD8-positive T cells among tumor cells compared with the solvent administration group (FIG. 3B)” value is given as “not found to exhibit any significant decrease”. In assay [3] (10F.9G2 10 mg/kg ip 3 times a week), the “Ki-67-positive CD8-positive T cells in tumors compared with the solvent administration group (FIG. 3C)” value is “significant increases”.
